# Experimental data from US10662214B2, “Compound of 4′-thionucleoside, as well as preparation method therefor, pharmaceutical composition thereof and application thereof” (Sichuan Kelun-Biotech Biopharmaceutical Co., Ltd., priority 2015, dated 2020).
# Entries after “also recorded” stand apart in the source; their conditions may differ.
# Experiments:
# [1] = test system: human pancreatic cancer cell BxPC-3; assay: Subcutaneous xenograft of human pancreatic cancer cell BxPC-3 in a nude mouse (Experimental example 3); assay type: in vivo; details: once every 3 days, 4 times
# Description: According to methods similar to those in sections 1 to 2 in Experimental example 2, pancreatic cancer cell BxPC-3 was cultured as a monolayer in vitro, and inoculated, and the animals were randomized into groups.
# An appropriate amount of the test compound was weighted out, and added in DMSO. The 10% solution of SE-β-CD was then added according to the desired concentration, and the final concentration of DMSO was adjusted to 2.5%. A gemcitabine injection (a positive control) was diluted to the desired concentration with physiological saline. A 10% solution of SE-β-CD containing 2.5% DMSO was prepared as a vehicle control.
# Mice bearing a tumor having a volume of 100-200 mm^3 were selected, and randomized into 14 groups (7 mice per group). The dosing volume was 20 mL/kg, and the administration (intravenous administration (i.v.)) was performed once every 3 days, for 4 times in total.
# (§1) For statistical calculations of the test indexes, please refer to Experimental example 2.
# [2] = test system: human pancreatic cancer cell Capan-1; assay: Subcutaneous xenograft of human pancreatic cancer cell Capan-1 in a nude mouse (Experimental example 5); assay type: in vivo; details: once every 3 days, 6 times
# Description: According to methods similar to those in sections 1 to 2 in Experimental example 2, pancreatic cancer cell Capan-1 was cultured as a monolayer in vitro, and inoculated, and the animals were randomized into groups.
# Samples were prepared as described in Experimental example 2.
# Mice bearing a tumor having a volume of 100-200 mm^3 were selected, and randomized into 7 groups (7 mice per group).
# as §1
# [3] = Oral toxicity test in mice (administration for 7 days); assay type: in vivo; details: once per day for 7 days
# Description: Normal Male and female Kunming mice (SPF grade, obtained from Laboratory Animal Center in Sichuan Academy of Chinese Medicine Science) were randomized by weight into groups. The test compound and vehicle control were formulated according to Experimental example 2. The dosage volume was 10 mL/kg, and the administration was performed by oral gavage, once per day for 7 consecutive days.
# [4] = Intravenous toxicity test in mice (administration for 7 days); assay type: in vivo
# Text: This test was used to investigate the toxic reactions after intravenous administration of compound C8 to normal KM mice for 7 consecutive days.
# KM mice passing the quarantine control were randomized into 4 groups (3 mice/gender/group). The test compound and vehicle control were formulated according to Experimental example 2. The mortality, appearance, behavior, mental status, secretion and excreta etc. of the animals were observed every day for 7 consecutive days after the administration, and the animals were anatomized on day 8.
# [5] = test system: colorectal cancer cell HCT-15; assay: CCK-8 inhibition of proliferation, HCT-15; assay type: cell-based, human
# Description: (§2) The tumor cell lines employed in the present experiment were gastric cancer cell NCI-N87 (obtained from Guangzhou Jennio Biological Technology Co., Ltd.), colorectal cancer cell HCT-116 (obtained from Chengdu Center for Safety Evaluation of Drugs), colorectal cancer cell HCT-15 and pancreatic cancer cell BxPC-3 (both obtained from ATCC, US).
# (§3) Each of the cell lines is cultured in a corresponding culture medium (RPMI-1640, IMDM and L-15 culture medium (manufacturer: Gibco)) supplemented with 10% heat inactivated Fetal Bovine Serum (manufacturer: Sigma), in an incubator at 37° C. and 5% CO2.
# (§4) For each type of tumor cells, a blank group, a vehicle group (containing 1‰ DMSO) and 8 groups with a test compound at concentrations of 5 nM, 10 nM, 50 nM, 100 nM, 500 nM, 1000 nM, 5000 nM, and 10000 nM (with each concentration in triplicate) were set.
# (§5) Appropriate amounts of test compounds were weighted, and dissolved in DMSO (cell culture grade, Sigma) to prepare stock solutions of various concentration gradients according to desired concentrations. During incubation, they were diluted by 1000 times as necessary, and incubation solutions with various drug concentrations were prepared (compound stock solution:medium containing 2% FBS=1:1000).
# (§6) The experiment was performed according to a CCK-8 method as described below. Cancer cells to be tested were seeded in a 96-well culture plate at a concentration of 5˜10×10^4/mL (100 μL/well), followed by incubation at 37° C. and 5% CO2 for 24 h. The medium was discarded, and incubation solutions with different drug concentrations (200 μL) were respectively added to each well, and the cells were further incubated for 72 h. After the incubation, a CCK-8 solution (20 μL/well) was added to each well to be tested, and the incubation was continued for 4 h in the incubator. OD values at two wavelengths (Detection wavelength: 450 nm, and reference wavelength: 650 nm) were determined on a multifunctional fully-automatic microplate reader.
# (§7) The inhibitory rate of tumor cell growth was calculated according to the following formula: Inhibitory rate=[(ODvehicle−ODblank)−(ODdrug−ODblank)]/(ODvehicle−ODblank)*100%
# (§8) Based on the inhibitory rate, a concentration-inhibitory rate curve was fit using GraphPad prism 5.0 software, and IC50 was calculated.
# [6] = test system: colorectal cancer cell HCT-116; assay: CCK-8 inhibition of proliferation, HCT-116; assay type: cell-based, human
# Description: as §2, §3
# For each type of tumor cells, a blank group, a vehicle group (containing 1‰ DMSO) and 8 groups with a test compound at concentrations of 5 nM, 10 nM, 50 nM, 100 nM, 500 nM, 1000 nM, 5000 nM, and 10000 nM (with each concentration in triplicate) were set. […]
# The experiment was performed according to a CCK-8 method as described below. […] OD values at two wavelengths (Detection wavelength: 450 nm, and reference wavelength: 650 nm) were determined on a multifunctional fully-automatic microplate reader.
# as §7, §8
# [7] = test system: gastric cancer cell NCI-N87; assay: CCK-8 inhibition of proliferation, NCI-N87; assay type: cell-based, human
# Description: as §2, §3, §4, §5, §6, §7, §8
# [8] = test system: pancreatic cancer cell BxPC-3; assay: CCK-8 inhibition of proliferation, BxPC-3; assay type: cell-based, human
# Description: as §2, §3, §4, §5, §6, §7, §8
# [9] = test system: gastric cancer cell NCI-N87; assay: Subcutaneous xenograft of gastric cancer cell NCI-N87 in nude mice (Experimental example 2); assay type: in vivo; details: for TGI (%): twice a week for 3 weeks; for Body weight change: 14 days after last administration vs beginning; for Tumor regression, CR (complete tumor regression): animals out of 8
# Description: This experimental example was used for the evaluation of the effectiveness of the compounds of the present invention in inhibiting the proliferation of a subcutaneous xenograft of human tumor cells via various routes of administration.
# Gastric cancer cell NCI-N87 and colorectal cancer cell HCT-116 were cultured as a monolayer in vitro, and the culture conditions were RPMI-1640 culture medium supplemented with 10% heat inactivated Fetal Bovine Serum, and incubation in an incubator at 37° C. and 5% CO2. The cells were subcultured by treatment with trypsin-EDTA digestion.
# The tumor cells were respectively inoculated into BALB/c nude mice (SPF grade, female, 16-18 g per mouse, about 6 to 8 weeks old, Beijing Vital River Laboratory Animal Technology Co., Ltd.).
# Each nude mouse was inoculated with about 2.5×10^6 HCT-116 tumor cells or about 3×10^6 NCI-N87 tumor cells (suspended in 0.1 ml PBS) subcutaneously into the underarm of the right flank. After the inoculated tumor reached a size in the range of about 100-200 mm^3, nude mice bearing a tumor that is too small (smaller than 100 mm^3) or too big (bigger than 200 mm^3) were removed from the study, and the remaining ones were randomized into groups.
# Sulfobutyl ether-β-cyclodextrin (SE-β-CD) was formulated with physiological saline to form a 10% solution, which was then filtered through a 0.22 μm sterile filter for later use.
# An appropriate amount of the test compound was weighted, and added in DMSO. The resultant solution was vortexed to uniformity, and the 10% solution of SE-β-CD was added according to the desired concentration. The solution was vortexed to uniformity, and the final concentration of DMSO was adjusted to 5%. A gemcitabine injection (a positive control) was directly diluted to the desired concentration with physiological saline. A 10% solution of SE-β-CD containing 5% DMSO was prepared as a vehicle control.
# Mice bearing a tumor having a volume of about 100-200 mm^3 were selected, and randomized into 5 groups (8 mice per group). The dosing volume was 10 mL/kg, and the administration (intravenous administration (i.v.) or oral administration (p.o.)) was performed twice a week for 3 weeks. The tumor volume and body weight were measured twice a week after the administration, and the mortality of animals was observed every day.
# The diameter of a tumor was measured, and the tumor volume was calculated according to the following formula: V=0.5a×b^2, wherein a and b respectively represent the major and minor diameters of a tumor. The anti-tumor effect was evaluated by the tumor growth inhibition (TGI) (%). TGI (%)=[1−(VT-end−VT-start)/(VC-end−VC-start)]*100%
# The body weight of an animal was measured twice a week.
# [10] = test system: human pancreatic cancer cell PANC-1; assay: Subcutaneous xenograft of human pancreatic cancer cell PANC-1 in a nude mouse (Experimental example 6); assay type: in vivo; details: once every 3 days, 6 times
# Description: This test was performed according to experimental example 5.
# Mice bearing a tumor having a volume of 100-200 mm^3 were selected, and randomized into 4 groups (6 mice per group).
# [11] = 115.38 μmol/kg i.v., 7 days, anatomy on day 8
structure (smiles),measurement,setting,value
"CC(C)OC(=O)[C@H](C)N[P@](=O)(OC[C@H]1S[C@@H](n2ccc(N)nc2=O)[C@@H](F)[C@@H]1O)Oc1ccccc1 [Compound C8, (S)-isopropyl 2-(((S)-(((2R,3S,4S,5R)-5-(4-amino-2-oxopyrimidin-1(2H)-yl)-4-fluoro-3-hydroxytetrahydrothiophen-2-yl)methoxy)(phenoxy)phosphoryl)amino)propanoate]",TGI (%),[1]; 0.04 mmol/kg i.v.,26.9%
same,TGI (%),[1]; 0.12 mmol/kg i.v.,74.9%
same,TGI (%),[1]; 0.24 mmol/kg i.v.,82.9%
same,TGI (%),[2]; 0.02 mmol/kg p.o.,25.6%
same,TGI (%),[2]; 0.06 mmol/kg i.v.,81.8%
same,TGI (%),[2]; 0.06 mmol/kg p.o.,79.1%
same,TGI (%),[2]; 0.19 mmol/kg p.o.,138.5%
same,dosage at which death of animals occurred,[3]; oral gavage,~115 µmol/kg
same,Results: mortality (3 Male + 3 Female),[3]; ~77 μmol/kg oral gavage,survived
same,Results: clinical symptoms (3 Male + 3 Female),[3]; ~6 mg/kg (~12 μmol/kg) oral gavage,No abnormal symptoms
same,Results: clinical symptoms (3 Male + 3 Female),[3]; ~20 mg/kg (~38 μmol/kg) oral gavage,No abnormal symptoms
same,"body weight increase on day 8, female mice","[4]; 115.38 μmol/kg i.v., 7 days",13.1%
same,"body weight increase on day 8, male mice","[4]; 115.38 μmol/kg i.v., 7 days",26.7%
same,"leukocyte count decrease vs vehicle group, female",[4]; [11],45%
same,"leukocyte count decrease vs vehicle group, male",[4]; [11],49%
same,"platelet count decrease vs vehicle group, female",[4]; [11],43%
same,"platelet count decrease vs vehicle group, male",[4]; [11],39%
same,symptoms observed on day 8,"[4]; compound C8 60.9 mg/kg (115.38 μmol/kg) i.v., 7 consecutive days",no relevant abnormalities were observed
same,inhibitory effect on colorectal cancer cell HCT-15 (in words),[5]; FIG. 1: 5-10000 nM,potent inhibitory effects; also recorded: excellent inhibitory effects
same,IC50,"[5]; Homo sapiens, HCT-15, CCK-8, 72 h incubation",1960 nM
same,inhibitory effect on colorectal cancer cell HCT-116 (in words),[6]; FIG. 1: 5-10000 nM,potent inhibitory effects; also recorded: excellent inhibitory effects
same,IC50,"[6]; Homo sapiens, HCT-116, CCK-8, 72 h incubation",485 nM
same,inhibitory effect on gastric cancer cell NCI-N87 (in words),[7]; FIG. 1: 5-10000 nM,potent inhibitory effects; also recorded: excellent inhibitory effects
same,IC50,"[7]; Homo sapiens, NCI-N87, CCK-8, 72 h incubation",483 nM
same,inhibitory effect on pancreatic cancer cell BxPC-3 (in words),[8]; FIG. 1: 5-10000 nM,potent inhibitory effects; also recorded: excellent inhibitory effects
same,IC50,"[8]; Homo sapiens, BXPC-3, CCK-8, 72 h incubation",705 nM
same,TGI (%),[9]; 190 μmol/kg i.v.,109%
same,Body weight change,[9]; 190 μmol/kg i.v.,+8.1%
same,"Tumor regression, CR (complete tumor regression)",[9]; 190 μmol/kg i.v.,8/8 CR
same,TGI (%),[9]; 190 μmol/kg p.o.,110%
same,Body weight change,[9]; 190 μmol/kg p.o.,+8.1%
same,"Tumor regression, CR (complete tumor regression)",[9]; 190 μmol/kg p.o.,8/8 CR
same,TGI (%),[10]; 0.06 mmol/kg p.o.,155%
same,TGI (%),[10]; 0.19 mmol/kg p.o.,195%
